Earlier results on four compounds are cited in patent publication US8415326B2, “Pharmaceutical composition comprising chito-oligomers” (Genis Ehf., priority 2001, dated 2013).

For series [1], the system named is normal human articular chondrocytes. The settings on record: reference [24].
Series [2] concerns mesothelial cells and fibroblasts. The settings on record: reference [11].
For a further series, the system named is activated macrophages. The note with it: reference [23].

For `CC(=O)N[C@H]1C(O)O[C@H](CO)[C@@H](O)[C@@H]1O` (some centres unmarked) [N-acetylglucosamine], in series [1], the “effect on NO production in normal human articular chondrocytes” value is “inhibit NO production”. For the same compound, the synthesis of hyaluronan result in series [2] is “increases the synthesis of hyaluronan”. Take `CC(=O)N[C@H]1[C@H](O[C@H]2[C@H](O)[C@@H](NC(C)=O)[C@H](O[C@H]3[C@H](O)[C@@H](NC(C)=O)C(O)O[C@@H]3CO)O[C@@H]2CO)O[C@H](CO)[C@@H](O[C@@H]2O[C@H](CO)[C@@H](O[C@@H]3O[C@H](CO)[C@@H](O[C@@H]4O[C@H](CO)[C@@H](O)[C@H](O)[C@H]4NC(C)=O)[C@H](O)[C@H]3NC(C)=O)[C@H](O)[C@H]2NC(C)=O)[C@@H]1O` (some centres unmarked) [Hexa-N-acetylchitohexaose]: the “effect on nitric oxide (NO) production by activated macrophages” value in the series with activated macrophages was “inhibited NO production but with less potency”. Take `N[C@H]1C(O)O[C@H](CO)[C@@H](O)[C@@H]1O` (some centres unmarked) [glucosamine]: in series [1], the “effect on NO production in normal human articular chondrocytes” value is on record as “inhibit NO production”.

Take `CC(=O)N[C@H]1[C@H](O[C@H]2[C@H](O)[C@@H](NC(C)=O)[C@H](O[C@H]3[C@H](O)[C@@H](NC(C)=O)C(O)O[C@@H]3CO)O[C@@H]2CO)O[C@H](CO)[C@@H](O[C@@H]2O[C@H](CO)[C@@H](O[C@@H]3O[C@H](CO)[C@@H](O)[C@H](O)[C@H]3NC(C)=O)[C@H](O)[C@H]2NC(C)=O)[C@@H]1O` (some centres unmarked) [penta-N-acetylchitopentaose]: the “effect on nitric oxide (NO) production by activated macrophages” value in the series with activated macrophages is given as “inhibited NO production but with less potency”.
